Experimental data reported in patent US5607969A, “L-DOPA ethyl ester to treat Parkinson's disease” (priority 1995, dated 1997).

What was measured:
[1] = cited from earlier work
Parkinsonian patients = conditions: cited from earlier work
[2] = system: Parkinson's Disease patients having response fluctuations; assay: Clinical trial: administration of L-DOPA ethyl ester by injection (UPDRS on/off phases); type: in vivo, human; conditions: prior to administration of LDEE
Experimental: A clinical trial was undertaken to assess the clinical efficacy of L-DOPA ethyl ester administered by sub-cutaneous injection.
The solution for injection L-DOPA ethyl ester 100mg, HCl to pH 4.0 and purified water as the vehicle.
Ten Parkinson's Disease patients having response fluctuations were hospitalized. These patients are typified in have "on" phases fluctuating with incapacitating "off" phases. Patients were administered s.c. or i.m. L-DOPA ethyl ester at escalating doses of 150-300mg in 2ml vehicle, twice daily, one hour after an oral capsule containing 25mg of carbidopa. "Off" and "on" UPDRS (Unified Parkinson's Disease Rating Scale) profiles, time to "on" phase and duration of "on" phase were measured. Blood samples were taken every 10 minutes post-L-DOPA ethyl ester administration for measurement of levodopa levels.

[3] = Stability of L-DOPA ethyl ester prepared according to Examples 1 and 2 (Table 2); type: physicochemical; set-up: key to COLOR: A: White with gray particles; B: Cream; C: WhiteYellow; D: Yellow; E: Dark Yellow; F: Gray; IMPURITIES: unit not given beside the values
Description: | STABILITY OF L-DOPA ESTER PREPARED

| Compound | COLOR ([3]; 25° C. -N2, 1 m) | IMPURITIES ([3]; 25° C. -N2, 1 m) | ASSAY ([3]; 25° C. -N2, 1 m, 43200 min) | COLOR ([3]; 25° C. -N2, 2 m) | IMPURITIES ([3]; 25° C. -N2, 2 m) | ASSAY ([3]; 25° C. -N2, 2 m, 86400 min) | COLOR ([3]; 25° C. -N2, 4 m) | IMPURITIES ([3]; 25° C. -N2, 4 m) | ASSAY ([3]; 25° C. -N2, 4 m, 172800 min) | COLOR ([3]; 40° C., 1 m) | IMPURITIES ([3]; 40° C., 1 m) | ASSAY ([3]; 40° C., 1 m, 43200 min) | COLOR ([3]; 40° C., 2 m) | IMPURITIES ([3]; 40° C., 2 m) | ASSAY ([3]; 40° C., 2 m, 86400 min) | COLOR ([3]; 40° C., 4 m) | ASSAY ([3]; 40° C., 4 m, 172800 min) | ASSAY ([3]; t = 0) | further results |
| --- | --- | --- | --- | --- | --- | --- | --- | --- | --- | --- | --- | --- | --- | --- | --- | --- | --- | --- | --- |
| N[C@@H](Cc1ccc(O)c(O)c1)C(=O)O [L-DOPA] |  |  |  |  |  |  |  |  |  |  |  |  |  |  |  |  |  |  | solubility [1]: very poor solubility; initial period of satisfactory, smooth and stable clinical benefit (Parkinsonian patients; L-DOPA therapy, on the average): 2-5 years; bioavailability (Parkinsonian patients; in vivo): poor bioavailability; half-life in vivo (Parkinsonian patients; in vivo): short half-life in vivo; mean duration of "on" phase ([2]; levodopa): approximately 90 minutes; mean latency to an "on" phase ([2]; post-administration of levodopa): 45 to 75 min |
| CCOC(=O)[C@@H](N)Cc1ccc(O)c(O)c1 [Example 2c, L-DOPA ethyl ester] | D | 5.6 | 94.0% | D/E | 5.1 | 93.6% | F | 5.6 | 94.1% | D | 5.7 | 91.7% | D/E | 4.8 | 93% | F | 93% | 95.8% | IMPURITIES ([3]; 40° C., 4 m): 6.4 |
| CCOC(=O)[C@@H](N)Cc1ccc(O)c(O)c1 [Example 2b, L-DOPA ethyl ester] | D/E | 13.0 | 88.0% | D/E | 13.9 | 86.8% | D/E | 9.7 | 88.1% | D/E | 14.0 | 85.1% | D/E | 18.2 | 83.3% | F | 79.2% | 87.9% |  |
